This passage reports GI50 and TGI results from PubChem BioAssay (NCI).

Some test systems named below: ACHN renal; BT-549 breast; IGROV1 ovarian; MALME-3M melanoma; NCI-H23 lung; NCI-H460 lung; NCI/ADR-RES ovarian; OVCAR-8 ovarian; SF-268 CNS; TK-10 renal.
Holding throughout (test): NCI tumour cell line growth inhibition, 48 h

Structures are written as SMILES. Values joined by “and” are separate entries in the source; they are usually repeats but may differ in a detail not shown here. Identical values can stand only once.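 Five concentrations, 48 hours, 96-well plates. The concentration for 50% growth inhibition is given as GI50. Definition used: TGI = concentration required for complete inhibition of growth.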

Turning to `N#Cc1c(NN)n(C2OC(CO)C(O)C2O)c2ncnc(N)c12` (centres undefined), the GI50 with ACHN renal was 0.0385 µM; in the assay on BT-549 breast it was 0.271 µM; in the assay with IGROV1 ovarian it was 0.057 µM; in the assay on MALME-3M melanoma it was 0.0858 µM; with NCI-H23 lung, 0.218 µM; with NCI-H460 lung, 0.032 µM. For the same compound, the GI50 was 0.283 µM with NCI/ADR-RES ovarian, 0.257 µM in the assay on OVCAR-8 ovarian, 0.171 µM with SF-268 CNS and 0.247 µM in the assay with TK-10 renal. Besides, the TGI in the assay on BT-549 breast stood at 2.8 µM; in the assay on IGROV1 ovarian, 0.348 µM; in the assay on MALME-3M melanoma, 1.35 µM; in the assay with NCI-H23 lung, 2.47 µM; in the assay on NCI-H460 lung, 0.412 µM; in the assay on NCI/ADR-RES ovarian, 4.17 µM. The TGI with OVCAR-8 ovarian was 7.56 µM; in the assay with SF-268 CNS it was greater than 45.3 µM; in the assay on TK-10 renal, 7.93 µM.
As for `Clc1nc2ccccc2nc1CI`, the GI50 in the assay on ACHN renal was 1.78 µM; in the assay with BT-549 breast it was 6.13 µM; with IGROV1 ovarian, 6.47 µM; in the assay with MALME-3M melanoma, 2.2 µM; with NCI-H23 lung, 6.38 µM; with NCI-H460 lung, 11 µM. Also, the GI50 in the assay on NCI/ADR-RES ovarian was 4.1 µM; in the assay on OVCAR-8 ovarian, 3.42 µM; with SF-268 CNS it was 5.23 µM; in the assay with TK-10 renal it was 3.94 µM. Besides, the TGI was 3.27 µM in the assay on ACHN renal; 18.2 µM in the assay with BT-549 breast; 17 µM with IGROV1 ovarian; 4.52 µM with MALME-3M melanoma; 25.3 µM in the assay with NCI-H23 lung; 28.5 µM in the assay with NCI-H460 lung. Besides, the TGI came to 18.1 µM with NCI/ADR-RES ovarian, 12.4 µM with OVCAR-8 ovarian, 17.9 µM in the assay with SF-268 CNS and 8.7 µM with TK-10 renal.
Turning to `N#CC(=C1C=CC(=NO)C=C1)c1ccccc1`, the GI50 with ACHN renal is 1.14 µM; with BT-549 breast it was 2.42 µM; with IGROV1 ovarian, 1.3 µM; with MALME-3M melanoma, 4.92 µM; in the assay on NCI-H23 lung it was 9.92 µM; in the assay with NCI-H460 lung it was 1.3 µM. Further, the GI50 in the assay on NCI/ADR-RES ovarian was 1.49 µM; in the assay on OVCAR-8 ovarian, 2.71 µM; in the assay on SF-268 CNS, 1.37 µM; with TK-10 renal, 4.47 µM. Further, the TGI with ACHN renal came out at 10.1 µM; in the assay with BT-549 breast, 11.6 µM; with IGROV1 ovarian, 4.53 µM; in the assay with MALME-3M melanoma, 19.8 µM; in the assay on NCI-H23 lung, 34.1 µM; with NCI-H460 lung, 6.11 µM. Further, the TGI in the assay on NCI/ADR-RES ovarian was 11.8 µM; in the assay on OVCAR-8 ovarian, 12.3 µM; in the assay on SF-268 CNS, 6.06 µM; in the assay on TK-10 renal, 13.3 µM.
Consider `O=C(Cc1ccc(/C=C/C(=O)c2ncc[nH]2)cc1)Nc1cc(F)c(F)c(F)c1`, for which the GI50 in the assay on ACHN renal is 3.89 µM; with BT-549 breast, 3.37 µM; in the assay on IGROV1 ovarian it was 3.31 µM; in the assay on MALME-3M melanoma, 4.33 µM; with NCI-H23 lung, 3.82 µM; in the assay with NCI-H460 lung, 3.31 µM. The GI50 with NCI/ADR-RES ovarian is 7.26 µM; in the assay with OVCAR-8 ovarian it was 5.58 µM; in the assay on SF-268 CNS, 5.26 µM; in the assay with TK-10 renal, 4.51 µM. The TGI in the assay on ACHN renal turned out to be 7.23 µM; in the assay on BT-549 breast, 6.74 µM; with IGROV1 ovarian, 9.68 µM; with MALME-3M melanoma, 12.2 µM; in the assay on NCI-H23 lung, 9.11 µM; in the assay on NCI-H460 lung, 11.7 µM. For the same compound, the TGI with NCI/ADR-RES ovarian is greater than 25 µM; in the assay with OVCAR-8 ovarian it was greater than 25 µM; with SF-268 CNS, 20.1 µM; in the assay on TK-10 renal, 10.1 µM.
Turning to `CCN(CC)CCCC(CNc1ccnc2cc(Cl)ccc12)c1ccc(Cl)cc1` (centres undefined), the GI50 with ACHN renal is 1.31 µM and 0.705 µM; in the assay with BT-549 breast, 1.79 µM and 1.75 µM; in the assay on IGROV1 ovarian, 2.42 µM and 1.6 µM; in the assay with MALME-3M melanoma, 1.41 µM and 1.25 µM; in the assay with NCI-H23 lung, 1.87 µM and 2.01 µM; with NCI-H460 lung, 1.9 µM and 1.74 µM. For the same compound, the GI50 in the assay with NCI/ADR-RES ovarian was 2.02 µM and 2.13 µM; in the assay on OVCAR-8 ovarian, 2.61 µM and 1.57 µM; with SF-268 CNS, 1.56 µM and 1.71 µM; in the assay on TK-10 renal, 1.67 µM and 0.83 µM. For the same compound, the TGI is 2.89 µM and 2.07 µM in the assay with ACHN renal; 3.79 µM and 3.38 µM with BT-549 breast; 7.47 µM and 4.55 µM with IGROV1 ovarian; 3.02 µM and 2.72 µM in the assay with MALME-3M melanoma; 4.42 µM and 5.93 µM in the assay with NCI-H23 lung; 3.95 µM and 3.82 µM with NCI-H460 lung. For the same compound, the TGI in the assay on NCI/ADR-RES ovarian is 5.14 µM and 5.87 µM; with OVCAR-8 ovarian, 7.61 µM and 3.99 µM; in the assay with SF-268 CNS, 3.31 µM and 4.55 µM; in the assay with TK-10 renal, 3.24 µM and 2.08 µM.
`CCN(CC)c1ccc2c(c1)OC(N)=C(C#N)C2c1cc(OC)c2c(c1)OCO2` (centres undefined): the GI50 with ACHN renal is 0.101 µM; in the assay on BT-549 breast, 0.0661 µM; in the assay with IGROV1 ovarian, 0.104 µM; in the assay on MALME-3M melanoma, 0.445 µM; in the assay with NCI-H23 lung it was 0.0359 µM; in the assay on NCI-H460 lung, 0.0336 µM. Moreover, the GI50 with NCI/ADR-RES ovarian was less than 0.0142 µM; with OVCAR-8 ovarian, 0.0395 µM; with SF-268 CNS, 0.06 µM; in the assay on TK-10 renal it was 0.316 µM. For the same compound, the TGI in the assay with ACHN renal was found to be 6.7 µM; in the assay on BT-549 breast it was 0.455 µM; in the assay on IGROV1 ovarian, 33.7 µM; in the assay on MALME-3M melanoma, 5.59 µM; with NCI-H23 lung, 14.5 µM; with NCI-H460 lung, 0.503 µM. Further, the TGI in the assay on NCI/ADR-RES ovarian was determined as 0.0679 µM; in the assay on OVCAR-8 ovarian, 3.53 µM; in the assay on SF-268 CNS it was 3.03 µM; in the assay with TK-10 renal it was 25.5 µM.
For the compound `O=C(CNc1ccc(Cl)cc1)Nc1ccc(-c2nc3ccccc3s2)cc1`, the GI50 in the assay on ACHN renal is 5.81 µM; with BT-549 breast, 1.83 µM; in the assay with IGROV1 ovarian, 5.79 µM; in the assay on MALME-3M melanoma it was 6.06 µM; with NCI-H23 lung, 2.9 µM; in the assay on NCI-H460 lung, 3.62 µM. For the same compound, the GI50 in the assay with NCI/ADR-RES ovarian is 3.42 µM; with OVCAR-8 ovarian it was 6.15 µM; in the assay on SF-268 CNS, 3.38 µM; with TK-10 renal, 5.98 µM. In addition, the TGI with ACHN renal amounted to 12.6 µM; in the assay on BT-549 breast, 4.7 µM; with IGROV1 ovarian, 12.9 µM; in the assay with MALME-3M melanoma, 12.6 µM; with NCI-H23 lung, 8.8 µM; in the assay on NCI-H460 lung, 12.7 µM. In addition, the TGI worked out at 11.4 µM in the assay on NCI/ADR-RES ovarian, 17.8 µM with OVCAR-8 ovarian, 10.8 µM in the assay with SF-268 CNS and 13.7 µM in the assay on TK-10 renal.
